# Source: patent US4987132A, “Saturated heterocyclic carboxamide derivatives” (Yamanouchi Pharmaceutical Co., Ltd., priority 1987, dated 1991)
# Counter-ions that a name gives are not always drawn. Like-named read-outs stand apart in the source and are kept apart here.
# Legend:
# Assay type in all cases: cell-based, rabbit (Japan white, male)
# [1] = test system: platelet activating factor (PAF)-induced rabbit platelet aggregation in plasma; test: PAF-induced platelet aggregation in rabbit platelet rich plasma
# Method: (§1) Method: Nine volumes of blood were drawn from the central ear artery of male rabbit (Japan white, 3 kg) directly into plastic syringe containing 1 volume of 3.8% sodium citrate. The blood was centrifuged at 270×g for 10 minutes at room temperature and the platelet rich plasma (PRP) was removed. The pellet was further centrifuged at 1,100×g for 15 minutes. The supernatant was used as platelet poor plasma (PPP). The platelet concentration was adjusted to 5×10^5 cells/μl with PPP. Platelet aggregation was measured by the method of G. V. R. Born and M. J. Cross [Journal of Physiology, 168, 178-195 (1963)] using a HEMA TRACER (Nikou Bio Science, Japan). Varying concentration of compounds were added to the PRP 2 minutes prior to PAF (10^-8 M). The extent of platelet aggregation was determined by the maximum change of light transmission, assigning the transmission of unstimulated PRP to be 0% and that of PPP to be as 100%. Percent inhibition with compound was calculated by dividing the percent aggregation in the presence of compound by that in the control, and then the IC50 values were calculated.
# [2] = test system: platelet aggregation induced by ADP; test: platelet aggregation induced by ADP; conditions: ADP 3×10^-6 M; data not shown
# Method: as §1, with “Varying concentration of compounds were added to the PRP 2 minutes prior to PAF (10^-8 M).” left out
# [3] = test system: platelet aggregation induced by arachidonic acid; test: platelet aggregation induced by arachidonic acid; conditions: arachidonic acid 1×10^-4 M; data not shown
# Method: as §1, with “Varying concentration of compounds were added to the PRP 2 minutes prior to PAF (10^-8 M).” left out
# [4] = test system: platelet aggregation induced by collagen; test: platelet aggregation induced by collagen; conditions: collagen 10 μg/ml; data not shown
# Method: as §1, with “Varying concentration of compounds were added to the PRP 2 minutes prior to PAF (10^-8 M).” left out
# [5] = Oryctolagus cuniculus, Platelet, Table 1, PAF 10^-8 M, compound added 2 minutes prior to PAF, rabbit PRP, read-out: IC50
# [6] = Oryctolagus cuniculus, Platelet
# [7] = Oryctolagus cuniculus, Platelet, PAF 10^-8 M, compound added 2 minutes prior to PAF, rabbit PRP, read-out: IC50 values
Compound,"IC50 [1, 5] [nM]",other results
"Cc1ccc(CNC(=O)C2CSC(c3cccnc3)N2)cc1 (stereo not drawn) [Example 20, N-(p-Methylbenzyl)-2-(3-pyridyl)thiazolidine-4-carboxamide dihydrochloride]",800,–
"CN(Cc1ccccc1)C(=O)C1CSC(c2cccnc2)N1 (stereo not drawn) [Example 22, N-benzyl-N-methyl-2-(3-pyridyl)thiazolidine-4-carboxamide dihydrochloride]",790,–
"O=C(C1CSC(c2cccnc2)N1)N1CCN(c2ccccc2)CC1 (stereo not drawn) [Example 32, trihydrochloride]",490,–
"O=C(NC1CCCCC1)C1CSC(c2cccnc2)N1 (stereo not drawn) [Example 34, N-cyclohexyl-2-(3-pyridyl)thiazolidine-4-carboxamide dihydrochloride]",–,"IC50 [1, 6]: 950 nM"
"O=C(C1CSC(c2cccnc2)N1)N1CCC(c2ccccc2)CC1 (stereo not drawn) [Example 46, 4-phenyl-1-[2-(3-pyridyl)thiazolidin-4-ylcarbonyl]piperidine dihydrochloride]",650,–
"Cl.Cl.Cl.O=C(C1CSC(c2cccnc2)N1)N1CCN(CCCCc2ccccc2)CC1 (stereo not drawn) [Example 49, 1-(4-phenylbutyl)-4-[2-(3-pyridyl)thiazolidin-4-ylcarbonyl]piperazine trihydrochloride]",85,"IC50 [1, 7]: 28 to 85 nM; inhibition of platelet aggregation induced by ADP [2]: did not inhibit; inhibition of platelet aggregation induced by arachidonic acid [3]: did not inhibit; inhibition of platelet aggregation induced by collagen [4]: did not inhibit"
"O=C(NNc1ccccc1)C1CSC(c2cccnc2)N1 (stereo not drawn) [Example 50, N'-phenyl-2-(3-pyridyl)thiazolidine-4-carbohydrazide]",800,–
"CC(C)CCOc1ccc(CNC(=O)C2CSC(c3cccnc3)N2)cc1 (stereo not drawn) [Example 54, N-[p-(3-methylbutoxy)benzyl]-2-(3-pyridyl)thiazolidine-4-carboxamide dihydrochloride]",240,–
CC(C)COc1ccc(CNC(=O)C2CSC(c3cccnc3)N2)cc1 (stereo not drawn) [Example 55],160,–
O=C(NCc1ccc(OCCCc2ccccc2)cc1)C1CSC(c2cccnc2)N1 (stereo not drawn) [Example 58],390,–
O=C(NCc1ccc(OCCCOc2ccccc2)cc1)C1CSC(c2cccnc2)N1 (stereo not drawn) [Example 60],760,–
CCCCc1ccc(CNC(=O)C2CSC(c3cccnc3)N2)cc1 (stereo not drawn) [Example 61],770,–
O=C(CCCN1CCN(C(=O)C2CSC(c3cccnc3)N2)CC1)c1ccc(Br)cc1 (stereo not drawn) [Example 67],71,"IC50 [1, 7]: 28 to 85 nM; inhibition of platelet aggregation induced by ADP [2]: did not inhibit; inhibition of platelet aggregation induced by arachidonic acid [3]: did not inhibit; inhibition of platelet aggregation induced by collagen [4]: did not inhibit"
CCCCCCCN1CCN(C(=O)C2CSC(c3cccnc3)N2)CC1 (stereo not drawn) [Example 71],64,"IC50 [1, 7]: 28 to 85 nM; inhibition of platelet aggregation induced by ADP [2]: did not inhibit; inhibition of platelet aggregation induced by arachidonic acid [3]: did not inhibit; inhibition of platelet aggregation induced by collagen [4]: did not inhibit"
O=C(C1CSC(c2cccnc2)N1)N1CCN(CCc2ccccc2)CC1 (stereo not drawn) [Example 84],220,–
O=C(C1CSC(c2cccnc2)N1)N1CCN(CCCCCc2ccccc2)CC1 (stereo not drawn) [Example 85],72,"IC50 [1, 7]: 28 to 85 nM; inhibition of platelet aggregation induced by ADP [2]: did not inhibit; inhibition of platelet aggregation induced by arachidonic acid [3]: did not inhibit; inhibition of platelet aggregation induced by collagen [4]: did not inhibit"
CN(Cc1ccc(OCCCc2ccccc2)cc1)C(=O)C1CSC(c2cccnc2)N1 (stereo not drawn) [Example 89],400,–
"CCCCCCCCN1CCN(C(=O)C2CSC(c3cccnc3)N2)CC1 (stereo not drawn) [Example 90, 1-octyl-4-[2-(3-pyridyl)thiazolidin-4-ylcarbonyl]piperazine fumarate]",67,"IC50 [1, 7]: 28 to 85 nM; inhibition of platelet aggregation induced by ADP [2]: did not inhibit; inhibition of platelet aggregation induced by arachidonic acid [3]: did not inhibit; inhibition of platelet aggregation induced by collagen [4]: did not inhibit"
CCCCCCN1CCN(C(=O)C2CSC(c3cccnc3)N2)CC1 (stereo not drawn) [Example 117],–,"IC50 ([1]; Table 1, PAF 10^-8 M, compound added 2 minutes prior to PAF, rabbit PRP, read-out: IC50): 260 nM"
Cc1ccc(CCCN2CCN(C(=O)C3CSC(c4cccnc4)N3)CC2)cc1 (stereo not drawn) [Example 119],79,"IC50 [1, 7]: 28 to 85 nM; inhibition of platelet aggregation induced by ADP [2]: did not inhibit; inhibition of platelet aggregation induced by arachidonic acid [3]: did not inhibit; inhibition of platelet aggregation induced by collagen [4]: did not inhibit"
O=C(C1CSC(c2cccnc2)N1)N1CCN(CCCc2ccc(O)cc2)CC1 (stereo not drawn) [Example 121],190,–
O=C(C1CSC(c2cccnc2)N1)N1CCN(CCCc2ccc(Cl)cc2)CC1 (stereo not drawn) [Example 123],180,–
O=C(C1CSC(c2cccnc2)N1)N1CCN(CCCc2ccc([N+](=O)[O-])cc2[N+](=O)[O-])CC1 (stereo not drawn) [Example 125],–,"IC50 [1, 6]: 450 nM"
Nc1ccc(CCCN2CCN(C(=O)C3CSC(c4cccnc4)N3)CC2)cc1 (stereo not drawn) [Example 126],180,–
Cc1ccccc1CCCN1CCN(C(=O)C2CSC(c3cccnc3)N2)CC1 (stereo not drawn) [Example 127],460,–
N#Cc1ccc(CCCN2CCN(C(=O)C3CSC(c4cccnc4)N3)CC2)cc1 (stereo not drawn) [Example 128],970,–
CC(CCN1CCN(C(=O)C2CSC(c3cccnc3)N2)CC1)c1ccccc1 (stereo not drawn) [Example 142],–,"IC50 [1, 7]: 28 to 85 nM; inhibition of platelet aggregation induced by ADP [2]: did not inhibit; inhibition of platelet aggregation induced by arachidonic acid [3]: did not inhibit; inhibition of platelet aggregation induced by collagen [4]: did not inhibit"

# Continued, in another order:
"IC50 [1, 5] [nM]",Compound,other results
430,"O=C(NCc1ccc(OCCCCc2ccccc2)cc1)C1CSC(c2cccnc2)N1 (stereo not drawn) [Example 23, N-2-(3-pyridyl)thiazolidine-4-carboxamide dihydrochloride]",–
250,"CCCCCCCOc1ccc(CNC(=O)C2CSC(c3cccnc3)N2)cc1 (stereo not drawn) [Example 24, N-(p-Heptyloxybenzyl)-2-(3-pyridyl)thiazolidine-4-carboxamide dihydrochloride]",–
860,"O=C(C1CSC(c2cccnc2)N1)N1CCC(Cc2ccccc2)CC1 (stereo not drawn) [Example 36, 4-benzyl-1-[2-(3-pyridyl)thiazolidin-4-ylcarbonyl]piperidine dihydrochloride]",–
450,"O=C(C1CSC(c2cccnc2)N1)N1CCN(Cc2ccccc2)CC1 (stereo not drawn) [Example 48, 1-benzyl-4-[2(3-pyridyl)thiazolidin-4-ylcarbonyl]piperazine trihydrochloride]",–
120,CC(C)CCCOc1ccc(CNC(=O)C2CSC(c3cccnc3)N2)cc1 (stereo not drawn) [Example 56],–
200,O=C(NCc1ccc(OCC2CCCC2)cc1)C1CSC(c2cccnc2)N1 (stereo not drawn) [Example 57],–
210,COc1cc(CNC(=O)C2CSC(c3cccnc3)N2)ccc1OCCCCc1ccccc1 (stereo not drawn) [Example 59],–
500,Cc1ccc(CN2CCN(C(=O)C3CSC(c4cccnc4)N3)CC2)cc1 (stereo not drawn) [Example 63],–
390,O=C(C1CSC(c2cccnc2)N1)N1CCN(CC=Cc2ccccc2)CC1 (stereo not drawn) [Example 64],–
120,O=C(C1CSC(c2cccnc2)N1)N1CCN(CCCOc2ccccc2)CC1 (stereo not drawn) [Example 65],–
430,O=C(CN1CCN(C(=O)C2CSC(c3cccnc3)N2)CC1)c1ccccc1 (stereo not drawn) [Example 66],–
900,O=C(C1CSC(c2cccnc2)N1)N1CCC(CCc2ccccc2)CC1 (stereo not drawn) [Example 72],–
900,O=C(C1CSC(c2cccnc2)N1)N1CCCN(Cc2ccccc2)CC1 (stereo not drawn) [Example 76],–
340,CCCCCCCN1CCCN(C(=O)C2CSC(c3cccnc3)N2)CC1 (stereo not drawn) [Example 80],–
28,"CCCCCCCCCCN1CCN(C(=O)C2CSC(c3cccnc3)N2)CC1 (stereo not drawn) [Example 81, 1-decyl-4-[2-(3-pyridyl)thiazolidin-4-ylcarbonyl]piperazine trihydrochloride]","IC50 [1, 7]: 28 to 85 nM; inhibition of platelet aggregation induced by ADP [2]: did not inhibit; inhibition of platelet aggregation induced by arachidonic acid [3]: did not inhibit; inhibition of platelet aggregation induced by collagen [4]: did not inhibit"
260,CCCCCCN1CCN(C(=O)C2CSC(c3cccnc3)N2)CC1 (stereo not drawn) [Example 92],–
630,CC(C)CCCN1CCN(C(=O)C2CSC(c3cccnc3)N2)CC1 (stereo not drawn) [Example 93],–
120,Cc1ncccc1C1NC(C(=O)N2CCN(CCCc3ccccc3)CC2)CS1 (stereo not drawn) [Example 97],–
170,COc1ccc(CCCN2CCN(C(=O)C3CSC(c4cccnc4)N3)CC2)cc1 (stereo not drawn) [Example 120],–
180,O=C(C1CSC(c2cccnc2)N1)N1CCN(CCCc2ccc(F)cc2)CC1 (stereo not drawn) [Example 124],–
